The subject of experiment [1] is Mus musculus. Nature of the experiment: Antipsychotic activity in mouse assessed as reversal of apomorphine-induced mesh climbing response at 50 mg/kg, ip administered 20 mins prior to apomorphine challenge measured after 120 mins.
Another experiment deals with D(2) dopamine receptor (Rattus norvegicus, UniProt P61169). Nature of the experiment: Displacement of [3H]spiperone from dopamine D2 receptor in rat striatum tissue after 20 mins by scintillation counting. The format is tissue-based. For orientation: In a radioligand displacement assay an active substance lowers the binding of a labelled ligand.
Chain of D(2) dopamine receptor (P61169 whole entry): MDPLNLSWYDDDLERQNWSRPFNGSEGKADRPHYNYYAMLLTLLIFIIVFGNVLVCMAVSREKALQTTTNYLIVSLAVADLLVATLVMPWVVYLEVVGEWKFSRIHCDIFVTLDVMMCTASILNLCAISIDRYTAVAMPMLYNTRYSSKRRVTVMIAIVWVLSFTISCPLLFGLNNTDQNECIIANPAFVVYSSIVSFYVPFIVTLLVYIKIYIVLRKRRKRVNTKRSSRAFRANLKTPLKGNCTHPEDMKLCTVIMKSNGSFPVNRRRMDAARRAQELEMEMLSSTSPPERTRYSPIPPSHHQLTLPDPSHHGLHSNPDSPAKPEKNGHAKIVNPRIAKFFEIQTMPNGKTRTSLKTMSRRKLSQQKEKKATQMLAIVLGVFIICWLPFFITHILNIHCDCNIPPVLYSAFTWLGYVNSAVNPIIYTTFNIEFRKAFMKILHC
The subject of experiment [2] is Mus musculus. Nature of the experiment: Antipsychotic activity in mouse assessed as reversal of DOI-induced head twitches at 10 mg/kg, ip administered 30 mins before DOI challenge. The format is functional. To be noted: route intraperitoneal.
Experiment [3] has as its target 5-hydroxytryptamine receptor 2A (Rattus norvegicus, UniProt P14842). Briefly: Displacement of [3H]ketanserin from 5HT2A in rat brain cerebral cortex after 20 mins by scintillation counting. Format: tissue-based.
The subject of experiment [4] is Mus musculus. Briefly: Antipsychotic activity in mouse assessed as reversal of DOI-induced head twitches at 20 mg/kg, ip administered 30 mins before DOI challenge. Format: functional. To be noted: route intraperitoneal.
Experiment [5] deals with T1, 5-hydroxytryptamine receptor 1A (Rattus norvegicus, UniProt P19327).
T1 sequence (P19327 whole entry): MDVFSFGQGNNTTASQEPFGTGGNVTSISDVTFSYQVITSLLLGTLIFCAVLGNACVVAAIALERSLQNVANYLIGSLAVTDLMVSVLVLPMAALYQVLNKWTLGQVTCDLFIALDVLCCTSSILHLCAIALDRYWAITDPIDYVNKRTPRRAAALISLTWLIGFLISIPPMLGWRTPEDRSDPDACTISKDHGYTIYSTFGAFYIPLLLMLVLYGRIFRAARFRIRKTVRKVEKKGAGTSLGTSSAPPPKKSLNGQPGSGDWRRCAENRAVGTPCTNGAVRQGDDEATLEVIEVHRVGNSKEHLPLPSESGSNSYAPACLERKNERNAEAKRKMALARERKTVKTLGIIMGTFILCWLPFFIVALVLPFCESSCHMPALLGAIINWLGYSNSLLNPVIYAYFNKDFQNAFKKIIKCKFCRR
Briefly: Displacement of [3H]8OH-DPAT from 5HT1A in rat brain cerebral cortex after 15 mins by scintillation counting. Format: tissue-based.

Experiment [6] has as its system Mus musculus. Nature of the experiment: Antipsychotic activity in mouse assessed as reversal of DOI-induced head twitches at 5 mg/kg, ip administered 30 mins before DOI challenge. The format is functional. To be noted: route intraperitoneal.
In experiment [7] the test system is Mus musculus. Briefly: Antipsychotic activity in mouse assessed as reversal of apomorphine-induced mesh climbing response at 10 mg/kg, ip administered 10 mins prior to apomorphine challenge measured after 40 mins. Format: functional, organism-based. Details: dose 10 mg/kg.
In experiment [8] the test system is Mus musculus. Nature of the experiment: Antipsychotic activity in mouse assessed as reversal of apomorphine-induced mesh climbing response at 2.5 mg/kg, ip administered 10 mins prior to apomorphine challenge measured after 50 mins. Details: dose 2.5 mg/kg. Format: functional, organism-based.
The test system of experiment [9] is Mus musculus. Briefly: Antipsychotic activity in mouse assessed as reversal of apomorphine-induced mesh climbing response at 2.5 mg/kg, ip administered 10 mins prior to apomorphine challenge measured after 30 mins. The format is functional, organism-based. Details: dose 2.5 mg/kg.
Experiment [10] relates to Mus musculus. Nature of the experiment: Antipsychotic activity in mouse assessed as reversal of apomorphine-induced mesh climbing response at 2.5 mg/kg, ip administered 10 mins prior to apomorphine challenge measured after 10 mins. The format is functional, organism-based. Details: dose 2.5 mg/kg.
Experiment [11] relates to Mus musculus. Nature of the experiment: Antipsychotic activity in mouse assessed as reversal of apomorphine-induced mesh climbing response at 2.5 mg/kg, ip administered 10 mins prior to apomorphine challenge measured after 20 mins. Format: functional, organism-based. Details: dose 2.5 mg/kg.
In experiment [12] the test system is Mus musculus. Nature of the experiment: Antipsychotic activity in mouse assessed as reversal of apomorphine-induced mesh climbing response at 2.5 mg/kg, ip administered 10 mins prior to apomorphine challenge measured after 60 mins. The format is functional, organism-based. Details: dose 2.5 mg/kg.
For experiment [13], the system named is Mus musculus. Nature of the experiment: Antipsychotic activity in mouse assessed as reversal of apomorphine-induced mesh climbing response at 10 mg/kg, ip administered 10 mins prior to apomorphine challenge measured after 20 mins. Format: functional, organism-based. Details: dose 10 mg/kg.
In experiment [14] the test system is Mus musculus. Nature of the experiment: Antipsychotic activity in mouse assessed as reversal of apomorphine-induced mesh climbing response at 50 mg/kg, ip administered 10 mins prior to apomorphine challenge measured after 30 mins. Further details: dose 50 mg/kg. The format is functional, organism-based.

Calls of active or inactive are those of the source. No cut-off for these calls is given here. Some results are limits rather than exact numbers.

Chain of 5-hydroxytryptamine receptor 2A (P14842 whole entry): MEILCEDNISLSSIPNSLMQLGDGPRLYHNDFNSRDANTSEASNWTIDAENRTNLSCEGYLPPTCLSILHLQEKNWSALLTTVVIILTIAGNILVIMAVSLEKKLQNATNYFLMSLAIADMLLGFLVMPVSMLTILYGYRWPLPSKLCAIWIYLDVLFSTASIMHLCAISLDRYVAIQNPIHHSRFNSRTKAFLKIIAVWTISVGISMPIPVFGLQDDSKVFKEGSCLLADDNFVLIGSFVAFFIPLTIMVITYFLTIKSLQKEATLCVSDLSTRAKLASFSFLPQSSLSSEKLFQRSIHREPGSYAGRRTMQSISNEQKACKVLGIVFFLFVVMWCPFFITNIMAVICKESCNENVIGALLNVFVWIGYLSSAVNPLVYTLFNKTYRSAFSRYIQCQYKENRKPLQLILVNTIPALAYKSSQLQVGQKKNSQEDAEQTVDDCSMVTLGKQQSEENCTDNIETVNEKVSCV

On to `O=C(N[C@@H]1CC2CC[C@H](C1)N2CC1CCCO1)c1ccc2ccccc2c1` (single isomer, unassigned), for which the outcome in the experiment on Mus musculus [1] was Active. Also, the Ki (in general, the dissociation constant of the complex between target and ligand, obtained from inhibition or displacement) was 1200 nM on D(2) dopamine receptor, 12.3 nM in experiment [3] and 3300 nM in experiment [5]. Moreover, the Activity in the experiment with Mus musculus [2] worked out at 63%; in the experiment with Mus musculus [4], 73%; in the experiment with Mus musculus [6], 26%.

`COc1ccccc1C(=O)N[C@H]1CC2CC[C@H](C1)N2Cc1ccco1` (single isomer, unassigned): the Ki amounted to 1000 nM at D(2) dopamine receptor, 6000 nM in experiment [3] and 6100 nM in [5].

Take `COc1cc(OC)cc(C(=O)N[C@H]2CC3CC[C@H](C2)N3Cc2ccco2)c1` (single isomer, unassigned): the Ki at D(2) dopamine receptor turned out to be 13200 nM; in experiment [3] it was 929 nM; in experiment [5], 4400 nM.

Turning to `O=C(N[C@H]1CC2CC[C@H](C1)N2Cc1ccco1)c1cccc2ccccc12` (single isomer, unassigned), the Ki on D(2) dopamine receptor was 66700 nM; in experiment [3] it was 2300 nM; in experiment [5], 7100 nM.

As for `COc1ccc(Cl)cc1C(=O)N[C@@H]1CC2CC[C@H](C1)N2CC1CCCO1` (single isomer, unassigned), the Ki on D(2) dopamine receptor was 2400 nM; in experiment [3], 120 nM; in experiment [5], 4600 nM.

Take `COc1cccc(C(=O)N[C@H]2CC3CC[C@H](C2)N3CC2CCCO2)c1` (single isomer, unassigned): the values for the Ki (at D(2) dopamine receptor; in experiment [3]; in experiment [5]) were greater than 100000 nM, 1100 nM and 10300 nM, respectively.

With `COc1cccc(C(=O)N[C@@H]2CC3CC[C@H](C2)N3Cc2ccco2)c1OC` (single isomer, unassigned; 14a), the Ki on D(2) dopamine receptor was greater than 100000 nM; in [3], 2500 nM; in experiment [5], greater than 100000 nM.

In the case of `COc1ccc(F)cc1C(=O)N[C@@H]1CC2CC[C@H](C1)N2CC1CCCO1` (single isomer, unassigned), the Ki stood at 12400 nM at D(2) dopamine receptor, 1100 nM in experiment [3] and 10100 nM in experiment [5].

On to `O=C(N[C@@H]1CC2CC[C@H](C1)N2CC1CCCO1)c1cccc2ccccc12` (single isomer, unassigned), for which the Ki on D(2) dopamine receptor was 4000 nM; in [3], 394 nM; in experiment [5], 3100 nM.

For `O=C(N[C@H]1CC2CC[C@H](C1)N2CC1CCCO1)c1ccccc1` (single isomer, unassigned), the Ki on D(2) dopamine receptor is greater than 100000 nM; in experiment [3], 3100 nM; in [5], 10200 nM.

For the molecule `COc1cc(Cl)ccc1C(=O)N[C@H]1CC2CC[C@H](C1)N2Cc1ccco1` (single isomer, unassigned), the outcome in the experiment with Mus musculus [1] was Active. For the same molecule, the Ki turned out to be 174 nM at D(2) dopamine receptor, 682 nM in experiment [3] and 2100 nM in experiment [5]. Also, the results for the Activity in the experiment on Mus musculus [2], in the experiment on Mus musculus [4] and in the experiment on Mus musculus [6] were 40%, 45% and 40%, respectively. Besides, the result with Mus musculus [7] was inactive.

As to `COc1ccc(C(=O)N[C@H]2CC3CC[C@H](C2)N3Cc2ccco2)c(OC)c1` (single isomer, unassigned), the Ki worked out at 652 nM at D(2) dopamine receptor, 1300 nM in [3] and 19000 nM in [5].

Regarding `COc1cccc(C(=O)N[C@@H]2CC3CC[C@H](C2)N3Cc2ccccn2)c1OC` (single isomer, unassigned), the Ki at D(2) dopamine receptor stood at 9.3 nM; in [3] it was 1000 nM; in [5], 1400 nM.

For `O=C(N[C@H]1CC2CC[C@H](C1)N2Cc1ccco1)c1ccc(Cl)cc1[N+](=O)[O-]` (single isomer, unassigned), the figures for the Ki (at D(2) dopamine receptor; in experiment [3]; in experiment [5]) were 19000 nM, 32000 nM and 16000 nM, respectively.

On to `CN1CCc2cccc3c2[C@H]1Cc1ccc(O)c(O)c1-3`, for which the outcome in the experiment on Mus musculus [8], in the experiment with Mus musculus [9], in the experiment on Mus musculus [10], with Mus musculus [11] and with Mus musculus [12] was inactive.

For the molecule `O=C(N[C@@H]1CC2CC[C@H](C1)N2Cc1ccccc1)c1cccc2ccccc12` (single isomer, unassigned), the Ki was 2900 nM on D(2) dopamine receptor, 394 nM in experiment [3] and 532 nM in experiment [5].

Consider `COc1cc(C(=O)N[C@H]2CC3CC[C@H](C2)N3Cc2ccco2)cc(OC)c1OC` (single isomer, unassigned), for which the Ki worked out at 52200 nM on D(2) dopamine receptor, 1100 nM in [3] and 2900 nM in [5].

`COc1ccc(F)cc1C(=O)N[C@H]1CC2CC[C@H](C1)N2Cc1ccco1` (single isomer, unassigned): the figures for the Ki (on D(2) dopamine receptor; in experiment [3]; in [5]) were 507 nM, 1400 nM and 17200 nM, respectively.

With `COc1cccc(C(=O)N[C@@H]2CC3CC[C@H](C2)N3Cc2ccco2)c1OC` (single isomer, unassigned; 4b) [listing 1 of 2 here], the result in the experiment on Mus musculus [1] and in the experiment on Mus musculus [14] was Active. In addition, in the experiment on Mus musculus [13], the result was inactive.

Turning to `COc1ccc(C(=O)N[C@H]2CC3CC[C@H](C2)N3Cc2ccco2)cc1OC` (single isomer, unassigned), the figures for the Ki (at D(2) dopamine receptor; in experiment [3]; in [5]) were 68800 nM, 7900 nM and 57300 nM, respectively.

As to `COc1cccc(C(=O)N[C@@H]2CC3CC[C@H](C2)N3Cc2ccncc2)c1OC` (single isomer, unassigned), the inhibitory constant (Ki) on D(2) dopamine receptor was 28.3 nM; in experiment [3] it was 700 nM; in experiment [5], 2500 nM.

On to `COc1cccc(C(=O)N[C@@H]2CC3CC[C@H](C2)N3Cc2ccco2)c1OC` (single isomer, unassigned; 4b) [listing 2 of 2 here], for which the Ki on D(2) dopamine receptor is 26.3 nM; in experiment [3], 745 nM; in [5] it was 3000 nM. For the same molecule, the Activity with Mus musculus [2] is listed as 28%; with Mus musculus [4], 47%; with Mus musculus [6], 33%.

In the case of `COc1ccc(OC)c(C(=O)N[C@H]2CC3CC[C@H](C2)N3Cc2ccco2)c1` (single isomer, unassigned), the Ki at D(2) dopamine receptor amounted to 1100 nM; in experiment [3], 1100 nM; in experiment [5] it was 9600 nM.

As to `COc1ccc(F)cc1C(=O)N[C@H]1C[C@H]2CC[C@@H](C1)N2Cc1ccco1` (stereo in doubt; 14b), the Ki is 44000 nM at D(2) dopamine receptor, 7000 nM in [3] and greater than 100000 nM in experiment [5].

As for `COc1cccc(C(=O)N[C@@H]2CC3CC[C@H](C2)N3Cc2cccnc2)c1OC` (single isomer, unassigned), the Ki at D(2) dopamine receptor amounted to 11.5 nM; in [3], 956 nM; in experiment [5] it was 3300 nM.

(Values after ChEMBL document CHEMBL1833947, “Synthesis and biological investigation of potential atypical antipsychotics with a tropane core. Part 1” (Eur J Med Chem, 2011).)
